Data: patent US20250066339A1, “HETEROCYCLE-SUBSTITUTED AROMATIC COMPOUND, METHOD FOR PREPARING SAME, HERBICIDAL COMPOSITION, AND USE THEREOF” (QINGDAO KINGAGROOT CHEMICAL COMPOUND CO., LTD., priority 2022, published 2025)

Tests used:
Assay in all cases: Post-emergence test on weeds
Format in all cases: in vivo
Parameters in all cases: key: Level 10: completely dead; Level 9: growth control rate greater than or equal to 90% and less than 100%; Level 8: growth control rate greater than or equal to 80% and less than 90%; Level 7: growth control rate greater than or equal to 70% and less than 80%; Level 6: growth control rate greater than or equal to 60% and less than 70%; Level 5: growth control rate greater than or equal to 50% and less than 60%; Level 4: growth control rate greater than or equal to 40% and less than 50%; Level 3: growth control rate greater than or equal to 30% and less than 40%; Level 2: growth control rate greater than or equal to 20% and less than 30%; Level 1: growth control rate less than 20%; Level 0: no effect
Settings in all cases: 3 weeks after application, fresh weight control rate
Setaria viridis = system: Setaria viridis
Description: (§1) The activity level criteria for plant damage (i.e., growth control rate) are as follows: • Level 10: completely dead; • Level 9: growth control rate greater than or equal to 90% and less than 100%; • Level 8: growth control rate greater than or equal to 80% and less than 90%; • Level 7: growth control rate greater than or equal to 70% and less than 80%; • Level 6: growth control rate greater than or equal to 60% and less than 70%; • Level 5: growth control rate greater than or equal to 50% and less than 60%; • Level 4: growth control rate greater than or equal to 40% and less than 50%; • Level 3: growth control rate greater than or equal to 30% and less than 40%; • Level 2: growth control rate greater than or equal to 20% and less than 30%; • Level 1: growth control rate less than 20%; • Level 0: no effect.
(§2) The above growth control rates are fresh weight control rates.
(§3) Monocotyledonous and dicotyledonous weed seeds (Descurainia sophia, Capsella bursa-pastoris, Abutilon theophrasti, Galium spurium, Stellaria media, Lithospermum arvense, Rorippa indica, Alopecurus aequalis, Alopecurus japonicus, Eleusine indica, Beckmannia syzigachne, Sclerochloa dura, Erigeron canadensis, Phleum paniculatum, Veronica polita, Bromus japonicus, Aegilops tauschii, Phalaris arundinacea, Amaranthus retroflexus, Chenopodium, Commelina communis, Cichorium endivia, Convolvulus arvensis, Cirsium arvense, Solanum nigrum, Acalypha australis, Digitaria sanguinalis, Echinochloa crus-galli, Setaria viridis, Setaria pumila, Leptochloa chinensis, Monochoria vaginalis, Sagittaria trifolia, Schoenoplectiella juncoides, Cyperus rotundus, Cyperus iria, Cyperus difformis, Fimbristylis, Portulaca oleracea, Xanthium sibiricum, Ipomoea nil, Eschenbachia japonica, etc.) and major crop seeds (wheat, maize, paddy rice, soybean, cotton, oilseed rape, millet, sorghum, potato, sesame, castor plant, etc.) were placed in plastic pots filled with soil and then covered with 0.5-2 cm of soil to allow them to grow in a favorable greenhouse environment. Two weeks after sowing, the test plants were treated at the stage of 2-3 leaves. The test compounds of the present invention were individually dissolved with acetone, then added with Tween® 80, with 1.5 L/ha of methyl oleate emulsifiable concentrate as a synergist, diluted into solutions of certain concentrations using certain amount of water, and sprayed to the plants using a spray tower. After drug application, the experimental results on weeds were collected after 3 weeks of cultivation in a greenhouse. The compounds were applied at 500, 250, 125, 60, 15, and 7.5 g a.i./ha in triplicate, and the results were averaged.

Veronica polita = system: Veronica polita
Description: as §1, §2, §3

Amaranthus retroflexus = system: Amaranthus retroflexus
Description: as §1, §2, §3

Digitaria sanguinalis = system: Digitaria sanguinalis
Description: as §1, §2, §3

Echinochloa crus-galli = system: Echinochloa crus-galli
Description: as §1, §2, §3

Abutilon theophrasti = system: Abutilon theophrasti
Description: as §1, §2, §3

C=C(C)c1cnc(-c2cc(C3=NOC(C)(C(=O)OCSC)C3)c(Cl)cc2F)c(Cl)c1 (stereo not drawn) [Compound 104]
10: activity level (growth control rate) Setaria viridis (Setaria viridis; 60 g a.i./ha) | activity level (growth control rate) Veronica polita (Veronica polita; 60 g a.i./ha) | activity level (growth control rate) Amaranthus retroflexus (Amaranthus retroflexus; 60 g a.i./ha) | activity level (growth control rate) Digitaria sanguinalis (Digitaria sanguinalis; 60 g a.i./ha) | activity level (growth control rate) Echinochloa crus-galli (Echinochloa crus-galli; 60 g a.i./ha) | activity level (growth control rate) Abutilon theophrasti (Abutilon theophrasti; 60 g a.i./ha)

CC1(C(=O)ON=C(c2ccccc2)c2ccccc2)CC(c2cc(-c3ncc(C(F)(F)F)cc3Cl)c(F)cc2Cl)=NO1 (stereo not drawn) [Compound 71]
10: activity level (growth control rate) Setaria viridis (Setaria viridis; 60 g a.i./ha) | activity level (growth control rate) Veronica polita (Veronica polita; 60 g a.i./ha) | activity level (growth control rate) Amaranthus retroflexus (Amaranthus retroflexus; 60 g a.i./ha) | activity level (growth control rate) Digitaria sanguinalis (Digitaria sanguinalis; 60 g a.i./ha) | activity level (growth control rate) Echinochloa crus-galli (Echinochloa crus-galli; 60 g a.i./ha) | activity level (growth control rate) Abutilon theophrasti (Abutilon theophrasti; 60 g a.i./ha)

CCSC(=O)C1(C)CC(c2cc(-c3ncc(C(F)(F)F)cc3Cl)c(F)cc2Cl)=NO1 (stereo not drawn) [Compound 78]
10: activity level (growth control rate) Setaria viridis (Setaria viridis; 15 g a.i./ha) | activity level (growth control rate) Veronica polita (Veronica polita; 15 g a.i./ha) | activity level (growth control rate) Amaranthus retroflexus (Amaranthus retroflexus; 15 g a.i./ha) | activity level (growth control rate) Digitaria sanguinalis (Digitaria sanguinalis; 15 g a.i./ha) | activity level (growth control rate) Echinochloa crus-galli (Echinochloa crus-galli; 15 g a.i./ha) | activity level (growth control rate) Abutilon theophrasti (Abutilon theophrasti; 15 g a.i./ha)

Cc1ccc(/C=N/OC(=O)C2(C)CC(c3cc(-c4ncc(C(F)(F)F)cc4Cl)c(F)cc3Cl)=NO2)s1 (stereo not drawn) [Compound 73]
10: activity level (growth control rate) Setaria viridis (Setaria viridis; 60 g a.i./ha) | activity level (growth control rate) Veronica polita (Veronica polita; 60 g a.i./ha) | activity level (growth control rate) Amaranthus retroflexus (Amaranthus retroflexus; 60 g a.i./ha) | activity level (growth control rate) Digitaria sanguinalis (Digitaria sanguinalis; 60 g a.i./ha) | activity level (growth control rate) Echinochloa crus-galli (Echinochloa crus-galli; 60 g a.i./ha) | activity level (growth control rate) Abutilon theophrasti (Abutilon theophrasti; 60 g a.i./ha)

CC1(C(=O)OCC(F)(F)F)CC(c2cc(-c3ncc(C(F)(F)F)cc3Cl)c(F)cc2Cl)=NO1 (stereo not drawn) [Compound 45]
10: activity level (growth control rate) Setaria viridis (Setaria viridis; 60 g a.i./ha) | activity level (growth control rate) Veronica polita (Veronica polita; 60 g a.i./ha) | activity level (growth control rate) Amaranthus retroflexus (Amaranthus retroflexus; 60 g a.i./ha) | activity level (growth control rate) Digitaria sanguinalis (Digitaria sanguinalis; 60 g a.i./ha) | activity level (growth control rate) Echinochloa crus-galli (Echinochloa crus-galli; 60 g a.i./ha) | activity level (growth control rate) Abutilon theophrasti (Abutilon theophrasti; 60 g a.i./ha)

CC(C)=NOC(=O)C1(C2CC2)CC(c2cc(-c3ncc(C(F)(F)F)cc3Cl)c(F)cc2Cl)=NO1 (stereo not drawn) [Compound 129]
10: activity level (growth control rate) Setaria viridis (Setaria viridis; 60 g a.i./ha) | activity level (growth control rate) Veronica polita (Veronica polita; 60 g a.i./ha) | activity level (growth control rate) Amaranthus retroflexus (Amaranthus retroflexus; 60 g a.i./ha) | activity level (growth control rate) Digitaria sanguinalis (Digitaria sanguinalis; 60 g a.i./ha) | activity level (growth control rate) Echinochloa crus-galli (Echinochloa crus-galli; 60 g a.i./ha) | activity level (growth control rate) Abutilon theophrasti (Abutilon theophrasti; 60 g a.i./ha)

COCOC(=O)C1(C)CC(c2cc(-c3ncc(C(F)(F)F)cc3Cl)c(F)cc2Cl)=NO1 (stereo not drawn) [Compound 49]
10: activity level (growth control rate) Setaria viridis (Setaria viridis; 15 g a.i./ha) | activity level (growth control rate) Veronica polita (Veronica polita; 15 g a.i./ha) | activity level (growth control rate) Amaranthus retroflexus (Amaranthus retroflexus; 15 g a.i./ha) | activity level (growth control rate) Digitaria sanguinalis (Digitaria sanguinalis; 15 g a.i./ha) | activity level (growth control rate) Echinochloa crus-galli (Echinochloa crus-galli; 15 g a.i./ha) | activity level (growth control rate) Abutilon theophrasti (Abutilon theophrasti; 15 g a.i./ha)

C=C(C)c1cnc(-c2cc(C3=NOC(C)(C(=O)ON=C(C)C)C3)c(Cl)cc2F)c(Cl)c1 (stereo not drawn) [Compound 113]
10: activity level (growth control rate) Setaria viridis (Setaria viridis; 60 g a.i./ha) | activity level (growth control rate) Veronica polita (Veronica polita; 60 g a.i./ha) | activity level (growth control rate) Amaranthus retroflexus (Amaranthus retroflexus; 60 g a.i./ha) | activity level (growth control rate) Digitaria sanguinalis (Digitaria sanguinalis; 60 g a.i./ha) | activity level (growth control rate) Echinochloa crus-galli (Echinochloa crus-galli; 60 g a.i./ha) | activity level (growth control rate) Abutilon theophrasti (Abutilon theophrasti; 60 g a.i./ha)

CSCCOC(=O)C1CC(c2cc(-c3ncc(C(F)(F)F)cc3Cl)c(F)cc2Cl)=NO1 (stereo not drawn) [Compound 105]
10: activity level (growth control rate) Setaria viridis (Setaria viridis; 60 g a.i./ha) | activity level (growth control rate) Veronica polita (Veronica polita; 60 g a.i./ha) | activity level (growth control rate) Amaranthus retroflexus (Amaranthus retroflexus; 60 g a.i./ha) | activity level (growth control rate) Digitaria sanguinalis (Digitaria sanguinalis; 60 g a.i./ha) | activity level (growth control rate) Echinochloa crus-galli (Echinochloa crus-galli; 60 g a.i./ha) | activity level (growth control rate) Abutilon theophrasti (Abutilon theophrasti; 60 g a.i./ha)

CCOC(=O)CCC1(C)CC(c2cc(-c3ncc(C(F)(F)F)cc3Cl)c(F)cc2Cl)=NO1 (stereo not drawn) [Compound 76]
10: activity level (growth control rate) Setaria viridis (Setaria viridis; 15 g a.i./ha) | activity level (growth control rate) Veronica polita (Veronica polita; 15 g a.i./ha) | activity level (growth control rate) Amaranthus retroflexus (Amaranthus retroflexus; 15 g a.i./ha) | activity level (growth control rate) Digitaria sanguinalis (Digitaria sanguinalis; 15 g a.i./ha) | activity level (growth control rate) Echinochloa crus-galli (Echinochloa crus-galli; 15 g a.i./ha) | activity level (growth control rate) Abutilon theophrasti (Abutilon theophrasti; 15 g a.i./ha)

CCOC(=O)/C(C)=N/OC(=O)C1(C)CC(c2cc(-c3ncc(C(F)(F)F)cc3Cl)c(F)cc2Cl)=NO1 (stereo not drawn) [Compound 70]
10: activity level (growth control rate) Setaria viridis (Setaria viridis; 60 g a.i./ha) | activity level (growth control rate) Veronica polita (Veronica polita; 60 g a.i./ha) | activity level (growth control rate) Amaranthus retroflexus (Amaranthus retroflexus; 60 g a.i./ha) | activity level (growth control rate) Digitaria sanguinalis (Digitaria sanguinalis; 60 g a.i./ha) | activity level (growth control rate) Echinochloa crus-galli (Echinochloa crus-galli; 60 g a.i./ha) | activity level (growth control rate) Abutilon theophrasti (Abutilon theophrasti; 60 g a.i./ha)
